Tested on: BT474 human breast carcinomas cell line
Test: In Vivo Tumor Models: BT474 xenograft
Conditions: BT474 (HER2+) xenograft in CB-17/SCID mice, 100 mg/kg once per day oral gavage, 5 days on/2 days off, 4 weeks
Excerpt: Xenografts were initiated with BT474 human breast carcinomas cell line and maintained by serial subcutaneous transplantation in CB-17/SCID mice (Charles River). On the day of tumor implant, each test mouse received a 1 mm^3 BT474 fragment implanted subcutaneously in the right flank, and tumor growth was monitored as the average size approached the target range of 100 to 150 mm3. About three weeks post-implantation, the animals were randomized and grouped based on tumor volume and mouse body weight. […] Tumors were measured in two dimensions using calipers, and volume was calculated using the formula: Tumor Volume (mm^3)=w^2×l/2.

Compound: CC1(N)CCN(c2cnc3c(-c4cccc(Cl)c4Cl)n[nH]c3n2)CC1 [Example 1, 1-(3-(2,3-dichlorophenyl)-1H-pyrazolo[3,4-b]pyrazin-6-yl)-4-methylpiperidin-4-amine]
- tolerability (body weight): tolerated dose
- tumor growth: significant suppression of tumor growth

Reference: patent US10851110B2, “Heterocyclic inhibitors of PTPN11” (priority 2016, dated 2020)
